Assay results as given in ChEMBL document CHEMBL3603744, “Structure activity relationship of C-2 ether substituted 1,5-naphthyridine analogs of oxabicyclooctane-linked novel bacterial topoisomerase inhibitors as broad-spectrum antibacterial agents (Part-5)” (Bioorg Med Chem Lett, 2015).
In brackets after ≈: the same amount, converted by molar mass. Activity calls are given as the source filed them. No rule for the calls is given here.

Columns and labels:
Escherichia coli = experiment: Antimicrobial activity against Escherichia coli ATCC 25922 by micro broth dilution or agar based method; format: functional
Acinetobacter baumannii = experiment: Antimicrobial activity against Acinetobacter baumannii IID876 by micro broth dilution or agar based method; format: functional
Staphylococcus aureus [1] = experiment: Antimicrobial activity against methicillin-resistant Staphylococcus aureus OIT971 by micro broth dilution or agar based method; format: functional, organism-based
Enterococcus faecium = experiment: Antimicrobial activity against vancomycin-resistant Enterococcus faecium VanA by micro broth dilution or agar based method; format: functional
Pseudomonas aeruginosa = experiment: Antimicrobial activity against Pseudomonas aeruginosa PAO1 by micro broth dilution or agar based method; format: functional
Streptococcus pneumoniae = experiment: Antimicrobial activity against Streptococcus pneumoniae IID553 by micro broth dilution or agar based method; format: functional
Staphylococcus aureus [2] = experiment: Antimicrobial activity against Staphylococcus aureus Smith by micro broth dilution or agar based method; format: functional

Row | Structure (SMILES) | MIC (Escherichia coli) [µg/mL] | MIC (Acinetobacter baumannii) [µg/mL] | growth inhibition (GI) (Staphylococcus aureus [1]) | MIC (Enterococcus faecium) [µg/mL] | MIC (Pseudomonas aeruginosa) [µg/mL] | MIC (Streptococcus pneumoniae) [µg/mL] | MIC (Staphylococcus aureus [2]) [µg/mL]
1 | O=C1COc2ccc(CNC34CCC(CCc5c(F)cnc6ccc(OCC7(CO)CC7)nc56)(CC3)OC4)nc2N1 | 16 (≈ 28.4 µM) | 4 (≈ 7.1 µM) | Active | 4 (≈ 7.1 µM) | 32 (≈ 56.8 µM) | 1 (≈ 1.77 µM) | 0.063 (≈ 0.112 µM)
2 | O=C1COc2ccc(CNC34CCC(CCc5c(F)cnc6ccc(OCCC(F)(F)C(=O)O)nc56)(CC3)OC4)nc2N1 | 16 (≈ 26.6 µM) | 16 (≈ 26.6 µM) | Active | 16 (≈ 26.6 µM) | 16 (≈ 26.6 µM) | 16 (≈ 26.6 µM) | 16 (≈ 26.6 µM)
3 | O=C(O)COc1ccc2ncc(F)c(CCC34CCC(NCc5ccc6c(n5)NC(=O)CO6)(CC3)CO4)c2n1 | 16 (≈ 29.8 µM) | 16 (≈ 29.8 µM) | Active | 16 (≈ 29.8 µM) | 16 (≈ 29.8 µM) | 16 (≈ 29.8 µM) | 16 (≈ 29.8 µM)
4 | N[C@H]1COC[C@@H]1Oc1ccc2ncc(F)c(CCC34CCC(NCc5ccc6c(n5)NC(=O)CO6)(CC3)CO4)c2n1 | 8 (≈ 14.2 µM) | 2 (≈ 3.54 µM) | Active | 16 (≈ 28.3 µM) | 32 (≈ 56.7 µM) | 4 (≈ 7.08 µM) | 0.25 (≈ 0.443 µM)
5 | O=C1COc2ccc(CNC34CCC(CCc5c(F)cnc6ccc(OC[C@@H]7C[C@@H](O)[C@@H](O)C7)nc56)(CC3)OC4)nc2N1 | 16 (≈ 27 µM) | 8 (≈ 13.5 µM) | Active | 4 (≈ 6.74 µM) | 32 (≈ 53.9 µM) | 0.5 (≈ 0.842 µM) | 0.125 (≈ 0.211 µM)
6 | N#CCCCOc1ccc2ncc(F)c(CCC34CCC(NCc5ccc6c(n5)NC(=O)CO6)(CC3)CO4)c2n1 | 4 (≈ 7.32 µM) | 2 (≈ 3.66 µM) | Active | 2 (≈ 3.66 µM) | 16 (≈ 29.3 µM) | 0.5 (≈ 0.915 µM) | 0.031 (≈ 0.0567 µM)
7 | CCOC(=O)C(F)(F)CCOc1ccc2ncc(F)c(CCC34CCC(NCc5ccc6c(n5)NC(=O)CO6)(CC3)CO4)c2n1 | 64 (≈ 102 µM) | 32 (≈ 50.8 µM) | Active | 64 (≈ 102 µM) | 64 (≈ 102 µM) | 8 (≈ 12.7 µM) | 1 (≈ 1.59 µM)
8 | O=C(O)CCCCOc1ccc2ncc(F)c(CCC34CCC(NCc5ccc6c(n5)NC(=O)CO6)(CC3)CO4)c2n1 | 16 (≈ 27.6 µM) | 16 (≈ 27.6 µM) | Active | 2 (≈ 3.45 µM) | 16 (≈ 27.6 µM) | 0.25 (≈ 0.431 µM) | 0.063 (≈ 0.109 µM)
9 | NC1(COc2ccc3ncc(F)c(CCC45CCC(NCc6ccc7c(n6)NC(=O)CO7)(CC4)CO5)c3n2)CC1 | 2 (≈ 3.65 µM) | 1 (≈ 1.82 µM) | Active | 8 (≈ 14.6 µM) | 16 (≈ 29.2 µM) | 1 (≈ 1.82 µM) | 0.25 (≈ 0.456 µM)
10 | COC(=O)C1(COc2ccc3ncc(F)c(CCC45CCC(NCc6ccc7c(n6)NC(=O)CO7)(CC4)CO5)c3n2)CC1 | 16 (≈ 27 µM) | 8 (≈ 13.5 µM) | Active | 16 (≈ 27 µM) | 16 (≈ 27 µM) | 2 (≈ 3.38 µM) | 0.125 (≈ 0.211 µM)
11 | N[C@@H]1COC[C@H]1Oc1ccc2ncc(F)c(CCC34CCC(NCc5ccc6c(n5)NC(=O)CO6)(CC3)CO4)c2n1 | 4 (≈ 7.08 µM) | 1 (≈ 1.77 µM) | Active | 8 (≈ 14.2 µM) | 16 (≈ 28.3 µM) | 0.5 (≈ 0.886 µM) | 0.125 (≈ 0.221 µM)
12 | O=C1COc2ccc(CNC34CCC(CCc5c(F)cnc6ccc(OCC(O)CO)nc56)(CC3)OC4)nc2N1 (stereo not given) | 16 (≈ 28.9 µM) | 4 (≈ 7.23 µM) | Active | 4 (≈ 7.23 µM) | 32 (≈ 57.8 µM) | 1 (≈ 1.81 µM) | 0.125 (≈ 0.226 µM)
13 | NC(=O)C(F)(F)CCOc1ccc2ncc(F)c(CCC34CCC(NCc5ccc6c(n5)NC(=O)CO6)(CC3)CO4)c2n1 | 8 (≈ 13.3 µM) | 4 (≈ 6.66 µM) | Active | 8 (≈ 13.3 µM) | 32 (≈ 53.3 µM) | 1 (≈ 1.67 µM) | 0.063 (≈ 0.105 µM)
14 | COC(=O)CCCCOc1ccc2ncc(F)c(CCC34CCC(NCc5ccc6c(n5)NC(=O)CO6)(CC3)CO4)c2n1 | 4 (≈ 6.74 µM) | 4 (≈ 6.74 µM) | Active | 2 (≈ 3.37 µM) | 4 (≈ 6.74 µM) | 0.5 (≈ 0.842 µM) | 0.063 (≈ 0.106 µM)
15 | O=C1COc2ccc(CNC34CCC(CCc5c(F)cnc6ccc(OCC(F)(F)F)nc56)(CC3)OC4)nc2N1 | 16 (≈ 28.5 µM) | 8 (≈ 14.2 µM) | Active | 4 (≈ 7.12 µM) | 16 (≈ 28.5 µM) | 1 (≈ 1.78 µM) | 0.063 (≈ 0.112 µM)
16 | O=C1COc2ccc(CNC34CCC(CCc5c(F)cnc6ccc(OCCCCO)nc56)(CC3)OC4)nc2N1 | 8 (≈ 14.5 µM) | 2 (≈ 3.63 µM) | Active | 2 (≈ 3.63 µM) | 16 (≈ 29 µM) | 0.5 (≈ 0.906 µM) | 0.031 (≈ 0.0562 µM)
17 | CCOC(=O)COc1ccc2ncc(F)c(CCC34CCC(NCc5ccc6c(n5)NC(=O)CO6)(CC3)CO4)c2n1 | 16 (≈ 28.3 µM) | 8 (≈ 14.1 µM) | Active | 16 (≈ 28.3 µM) | 16 (≈ 28.3 µM) | 16 (≈ 28.3 µM) | 0.25 (≈ 0.442 µM)
18 | N[C@H]1CO[C@@H]1COc1ccc2ncc(F)c(CCC34CCC(NCc5ccc6c(n5)NC(=O)CO6)(CC3)CO4)c2n1 | 4 (≈ 7.08 µM) | 0.5 (≈ 0.886 µM) | Active | 4 (≈ 7.08 µM) | 16 (≈ 28.3 µM) | 0.5 (≈ 0.886 µM) | 0.125 (≈ 0.221 µM)
19 | CC(C)(O)CCOc1ccc2ncc(F)c(CCC34CCC(NCc5ccc6c(n5)NC(=O)CO6)(CC3)CO4)c2n1 | 16 (≈ 28.3 µM) | 16 (≈ 28.3 µM) | Active | 16 (≈ 28.3 µM) | 16 (≈ 28.3 µM) | 4 (≈ 7.07 µM) | 1 (≈ 1.77 µM)
20 | O=C1COc2ccc(CNC34CCC(CCc5c(F)cnc6ccc(OC(F)F)nc56)(CC3)OC4)nc2N1 | 2 (≈ 3.78 µM) | 0.5 (≈ 0.944 µM) | Active | 1 (≈ 1.89 µM) | 4 (≈ 7.55 µM) | 0.125 (≈ 0.236 µM) | 0.016 (≈ 0.0302 µM)
21 | O=C1COc2ccc(CNC34CCC(CCc5c(F)cnc6ccc(OC[C@H]7C[C@H]7C(=O)O)nc56)(CC3)OC4)nc2N1 (relative stereo) | 32 (≈ 55.4 µM) | 32 (≈ 55.4 µM) | Active | 2 (≈ 3.46 µM) | 32 (≈ 55.4 µM) | 0.125 (≈ 0.216 µM) | 0.125 (≈ 0.216 µM)
22 | CCOC(=O)CCCOc1ccc2ncc(F)c(CCC34CCC(NCc5ccc6c(n5)NC(=O)CO6)(CC3)CO4)c2n1 | 8 (≈ 13.5 µM) | 2 (≈ 3.37 µM) | Active | 2 (≈ 3.37 µM) | 8 (≈ 13.5 µM) | 0.125 (≈ 0.211 µM) | 0.031 (≈ 0.0522 µM)
23 | O=C1COc2ccc(CNC34CCC(CCc5c(F)cnc6ccc(OCc7cc(=O)c(O)c[nH]7)nc56)(CC3)OC4)nc2N1 | 16 (≈ 26.6 µM) | 16 (≈ 26.6 µM) | Active | 64 (≈ 106 µM) | 16 (≈ 26.6 µM) | 32 (≈ 53.1 µM) | 8 (≈ 13.3 µM)
24 | NC1COCC1Oc1ccc2ncc(F)c(CCC34CCC(NCc5ccc6c(n5)NC(=O)CO6)(CC3)CO4)c2n1 (stereo not given) | 4 (≈ 7.08 µM) | 1 (≈ 1.77 µM) | Active | 8 (≈ 14.2 µM) | 16 (≈ 28.3 µM) | 1 (≈ 1.77 µM) | 0.125 (≈ 0.221 µM)
25 | O=C1COc2ccc(CNC34CCC(CCc5c(F)cnc6ccc(OCC7(C(=O)O)CC7)nc56)(CC3)OC4)nc2N1 | 16 (≈ 27.7 µM) | 16 (≈ 27.7 µM) | Active | 16 (≈ 27.7 µM) | 16 (≈ 27.7 µM) | 2 (≈ 3.46 µM) | 0.5 (≈ 0.866 µM)
